Legend:
HT29 = assay: NCI-60 screening, one-dose (10 µM) and five-dose, SRB; format: cell-based, human; conditions: Homo sapiens, HT-29; 10 μM; HT29, Colon Cancer; read-out: Growth percentage
HOP-92 = assay: as above; format: cell-based, human; conditions: Homo sapiens; 10 μM; HOP-92, Non-Small-Cell Lung Cancer; read-out: Growth percentage
OVCAR-3 = assay: as above; format: cell-based; conditions: Homo sapiens; 10 μM; OVCAR-3, Ovarian Cancer; read-out: Growth percentage
786−0 = assay: as above; format: cell-based, human; conditions: Homo sapiens; 10 μM; 786−0, Renal Cancer; read-out: Growth percentage
KM12 = assay: as above; format: cell-based, human; conditions: Homo sapiens, KM12, 10 μM; KM12, Colon Cancer; read-out: Growth percentage
MDA-MB-435 = assay: as above; format: cell-based; conditions: Homo sapiens, MDA-MB-435, read-out: Growth percentage, 10 μM; MDA-MB-435, Melanoma
HCC-2998 = assay: as above; format: cell-based, human; conditions: Homo sapiens; 10 μM; HCC-2998, Colon Cancer; read-out: Growth percentage
TK-10 = assay: as above; format: cell-based, human; conditions: Homo sapiens; 10 μM; TK-10, Renal Cancer; read-out: Growth percentage
DU-145 = assay: as above; format: cell-based, human; conditions: Homo sapiens; 10 μM; DU-145, Prostate Cancer; read-out: Growth percentage
SK-MEL-5 = assay: as above; format: cell-based, human; conditions: Homo sapiens; 10 μM; SK-MEL-5, Melanoma; read-out: Growth percentage
MOLT-4 = assay: as above; format: cell-based, human; conditions: Homo sapiens; 10 μM; MOLT-4, Leukemia; read-out: Growth percentage
[1] = test system: 60 human cancer cell lines; assay: NCI-60 screening, full panel (mean growth, MID a, ranges over all lines); conditions: Homo sapiens, read-out: Mean growth percentage
M14 = assay: NCI-60 screening, one-dose (10 µM) and five-dose, SRB; format: cell-based, human; conditions: Homo sapiens; 10 μM; M14, Melanoma; read-out: Growth percentage
BT-549 = assay: as above; format: cell-based; conditions: Homo sapiens; 10 μM; BT-549, Breast Cancer; read-out: Growth percentage
SK-OV-3 = assay: as above; format: cell-based, human; conditions: Homo sapiens; 10 μM; SK-OV-3, Ovarian Cancer; read-out: Growth percentage
SR = assay: as above; format: cell-based, human; conditions: 10 μM, Leukemia
RXF 393 = assay: as above; format: cell-based; conditions: Homo sapiens; 10 μM; RXF 393, Renal Cancer; read-out: Growth percentage
T-47D = assay: as above; format: cell-based, human; conditions: 10 μM, Breast Cancer
UACC-62 = assay: as above; format: cell-based; conditions: Homo sapiens; 10 μM; UACC-62, Melanoma; read-out: Growth percentage
SW-620 = assay: as above; format: cell-based, human; conditions: Homo sapiens; 10 μM; SW-620, Colon Cancer; read-out: Growth percentage
HCT-116 = assay: as above; format: cell-based, human; conditions: Homo sapiens
ACHN = assay: as above; format: cell-based, human; conditions: Homo sapiens, 10 μM, Renal Cancer, read-out: Growth percentage
NCI-H23 = assay: as above; format: cell-based, human; conditions: Homo sapiens; 10 μM; NCI-H23, Non-Small-Cell Lung Cancer; read-out: Growth percentage
SNB-75 = assay: as above; format: cell-based, human; conditions: Homo sapiens; 10 μM; SNB-75, CNS Cancer; read-out: Growth percentage
EKVX = assay: as above; format: cell-based, human; conditions: Homo sapiens, 10 μM, Non-Small-Cell Lung Cancer, read-out: Growth percentage
A498 = assay: as above; format: cell-based; conditions: Homo sapiens, A498, 10 μM; A498, Renal Cancer; read-out: Growth percentage
UACC-257 = assay: as above; format: cell-based, human; conditions: Homo sapiens; 10 μM; UACC-257, Melanoma; read-out: Growth percentage
OVCAR-5 = assay: as above; format: cell-based, human; conditions: 10 μM; OVCAR-5, Ovarian Cancer
OVCAR-4 = assay: as above; format: cell-based, human; conditions: Homo sapiens; 10 μM; OVCAR-4, Ovarian Cancer; read-out: Growth percentage
SF-295 = assay: as above; format: cell-based, human; conditions: Homo sapiens; 10 μM; SF-295, CNS Cancer; read-out: Growth percentage
RPMI-8226 = assay: as above; format: cell-based, human; conditions: Homo sapiens, RPMI-8226, 10 μM; RPMI-8226, Leukemia; read-out: Growth percentage

Cc1nc(SCC(=O)N2CCN(c3cc4c(cc3F)c(=O)c(C(=O)O)cn4C3CC3)CC2)sc1C(=O)/C=C/c1ccc(Cl)cc1 [Compound 4c, (E)-7-(4-(2-((5-(3-(4-Chlorophenyl)acryloyl)-4-methylthiazol-2-yl)thio)acetyl)piperazin-1-yl)-1-cyclopropyl-6-fluoro-4-oxo-1,4-dihydroquinoline-3-carboxylic Acid]
activity at 10 µM (HT29): 108%
activity at 10 µM (HOP-92): 119%
activity at 10 µM (OVCAR-3): 188%
activity at 10 µM (786−0): 96.2%
activity at 10 µM (KM12): 104%
activity at 10 µM (MDA-MB-435): 102%
activity at 10 µM (HCC-2998): 104%
activity at 10 µM (TK-10): 106%
activity at 10 µM (DU-145): 178%
activity at 10 µM (SK-MEL-5): 100%
activity at 10 µM (MOLT-4): 103%
activity at 10 µM [1]: 103%
activity at 10 µM (M14): 98.7%
activity at 10 µM (BT-549): 85.9%
activity at 10 µM (SK-OV-3): 129%
Growth percentage (SR): 35.32%
activity at 10 µM (RXF 393): 109%
Growth percentage (T-47D): 116.3%
activity at 10 µM (UACC-62): 94.9%
activity at 10 µM (SW-620): 113%
activity at 10 µM (HCT-116; HCT-116, 10 μM, HCT-116, Colon Cancer, read-out: Growth percentage): 61%
IC50 (HCT-116; colon HCT-116): 0.34 µM
activity at 10 µM (ACHN): 96.4%
activity at 10 µM (NCI-H23): 96.5%
activity at 10 µM (SNB-75): 95.6%
activity at 10 µM (EKVX): 103%
activity at 10 µM (A498): 119%
activity at 10 µM (UACC-257): 117%
Growth percentage (OVCAR-5): 100.3%
activity at 10 µM (OVCAR-4): 107%
activity at 10 µM (SF-295): 102%
activity at 10 µM (RPMI-8226): 7.7%
